Common to all, as to format: cell-based, human
In data set [1] the test system is TESTSKIN II. The experiment in a line: MTT reduction toxicity assay on TESTSKIN II skin tissue. Conditions: MTT % survival, 24-hour exposure; PMA 10 ng/mL.
Procedure: The release of PGE2 and GM-CSF from skin tissue provides a measure of protective potential following pre-incubation with test materials, whereas the reduction of MTT (3-[4,5-dimethylthiazol-2yl]-2,5-diphenyl-2H-tetrazolium bromide) provides an estimate of toxicity potential.
(§1) The skin tissue used in this study, TESTSKIN II (Organogenesis Inc., Canton, Mass.), is constructed from human skin with anatomical structures and physiological functions that simulate actual living skin. This tissue has an upper epidermal layer with well-differentiated keratinocytes and stratum corneum and a lower dermal layer with living fibroblasts able to produce collagen matrix.
(§2) The test materials were evaluated for exposure periods of 4, 8, and 24 hours, and their toxicity was evaluated for an exposure period of 24 hours. Test materials 2, 4, 6, and 8 were used neat. […] All dilutions were made in growth media, and assays were performed in triplicate.
All supplies and handling equipment are sterilized, and techniques for maintaining sterility are used. […]
Tissues free of test materials are incubated with 2 mg/mL of MTT solution (made up in growth media) in a humidified 37° C. incubator supplied with 10% CO2 for 2 hours. […] Spent MTT solution is read in a 96 well flat bottom plate at A540. […]
For data set [2], the system named is PGE2. The experiment in a line: PGE2 secretion from TESTSKIN II tissue (competitive ELISA). Conditions: after 24 hours of exposure. (In general: ELISA stands for enzyme-linked immunosorbent assay.)
Procedure: The anti-inflammatory potential of a composition according to the present invention that includes a combination of linseed extract and licorice extract was evaluated as described herein. The release of PGE2 and GM-CSF from skin tissue provides a measure of protective potential following pre-incubation with test materials, whereas the reduction of MTT (3-[4,5-dimethylthiazol-2yl]-2,5-diphenyl-2H-tetrazolium bromide) provides an estimate of toxicity potential.
The skin tissue used in this study, TESTSKIN II (Organogenesis Inc., Canton, Mass.), is constructed from human skin with anatomical structures and physiological functions that simulate actual living skin. […]
The test materials were evaluated for exposure periods of 4, 8, and 24 hours, and their toxicity was evaluated for an exposure period of 24 hours. […]
Four controls are included: total activity, non-specific binding, maximum binding, and substrate blank. […] Following incubation, 50 μL of stop solution (trisodium phosphate solution) is added and the optical density is measured immediately at 405 nm (reference wavelength of 570-590 nm) using a microplate spectrophotometer. The amount of PGE2 present in the supernatant is determined by comparison to the calibration curve generated by the recombinant PGE2 standard. […]
For data set [3], the system named is IL-1α. The experiment in a line: IL-1α secretion from TESTSKIN II tissue (ELISA). Conditions: test materials neat, dexamethasone 100 μM.
Procedure: as §1, §2
All supplies and handling equipment are sterilized, and techniques for maintaining sterility are used. Skin tissue is punched out using an 8 mm biopsy punch from the middle section and transferred to a well of a six-well plate containing transwell inserts and 1 mL of growth media. Tissues are transferred to a humidified 37° C. incubator supplied with 10% CO2 and incubated overnight.
Test materials to be used are dosed on a sterile dosing pad (10 μL/pad) and placed on top of tissue. Dosed tissues are returned to the incubator and incubated for a specified amount of time (e.g., 4 hours), after which the supernatants are replaced with fresh media. Collected supernatants are used for PGE2 and GM-CSF assays.
Assays are performed in triplicate, and the numbers shown correspond to averages of the triplicate treatments.
Tissues are pre-incubated with test materials for 4 hours prior to being stimulated by PMA or Histamine. Secreted IL-1α, PGE2 and GM-CSF are measured using the ELISA method.

Turning to `CCCCCCCCCCCCCC(=O)O[C@@H]1[C@@H](C)[C@@]2(O)[C@@H](C=C(CO)C[C@]3(O)C(=O)C(C)=C[C@@H]23)[C@@H]2C(C)(C)[C@]12OC(C)=O` [PMA, phorbol myristate acetate], the “toxicity to TESTSKIN II tissue, in words” value in data set [1] is recorded as “mildly toxic”. The “induction of PGE2 secretion by stimulus, in words” value in data set [2] is “fails to induce PGE2 secretion above the background level”.
Consider `C[C@@H]1C[C@H]2[C@@H]3CCC4=CC(=O)C=C[C@]4(C)[C@@]3(F)[C@@H](O)C[C@]2(C)[C@@]1(O)C(=O)CO` [Dexamethasone, dexamethasone], for which the IL-1α secretion stood at 22.00 ± 9.69 in data set [3] (0 Hr, average of triplicate ± SD); 24.45 ± 9.47 in data set [3] (8 Hr); 25.42 ± 8.94 in data set [3] (24 Hr).
